Article PMC8573170 (The Journal of Biological Chemistry, 2021)
“Also recorded” adds a separate entry of the source.

How the values were obtained:
α-thrombin [1] = biological target: T1, α-thrombin (Homo sapiens, UniProt P00734); experiment: SPR, peptides passed over immobilized thrombin; assay type: binding; settings: thrombin amine-coupled on CM5 chip; peptides 0-50 nM; single cycle; compared with biotinylated XC-43 surface
Method: Evaluation of binding kinetics by SPR was performed using a Biacore T200 instrument. Synthetic XC-43 containing covalently linked biotin at the N-terminal amino group and the ε-amino group of Lys 1 was bound to a surface of immobilized neutravidin on a CM-5 chip. After conditioning, human α-thrombin was passed over the surface, and kinetic data were collected in single cycle mode using a running buffer of 10 mM HEPES pH 7.4, 150 mM NaCl (HBS). The data were fit to a 1:1 Langmuir binding model. Binding was also analyzed after immobilization of α-thrombin on a CM-5 chip using amine coupling methodology. XC-42 and XC-43 were passed over the surface, and data were collected in the single cycle mode using HBS as a running buffer. The data were fit to a 1:1 binding model as described above.
Figure S2: Surface pl asmon resonanc e in the single cycle mode of (A) XC -42 or (B) XC-43 binding to thrombin immobilized on a CM5 chip surface. Exp erimental data are shown as a solid grey line while the calculated fit is shown as a dashed line (C) Th e kinetic param eters w ere estimated by fitting a 1:1 binding model. Peptide concentrations for each experiment were, 0 nM, 6.25 nM, 12.5 nM, 25 nM, 50 nM.
(§1) (1 picture or pasted object on this page, not shown here)

thrombin = thrombin (Homo sapiens, UniProt P00734); experiment: Cleavage of peptides by thrombin in solution, measured by mass spectrometry; assay type: in vitro ADME; settings: 25 μM peptide, 1 μM thrombin (25:1); 2 h at 37 °C; 25 mM Tris-HCl pH 8.0, 150 mM NaCl; ESI-MS
Method: To detect cleavage of XC-42 and XC-43 by thrombin in solution, we incubated each peptide separately at a concentration of 25 μM in the presence of thrombin (1 μM) in 25 mM Tris-HCl pH 8.0 containing 150 mM NaCl for 2 h at 37 °C. Reactions were stopped by adjusting the pH to 2.0 with the addition of TFA. A Q Exactive plus (Thermo Fisher Scientific) mass spectrometer was used to carry out ESI-MS experiments. The instrument was operated at a resolution of 280k, spray voltage of 3.5 kV, and capillary temperature of 250 °C. Samples were desalted by C18 Zip-tip (Millipore) and dissolved in 200 μl of reconstitution buffer (50% acetonitrile, 49% water, 1% TFA). Samples were introduced using a syringe pump (Thermo Fisher Scientific) with a flow rate of 5 μl/min. Xtract was used to deconvolute the raw data.

α-thrombin [2] = biological target: T1, α-thrombin; experiment: Isothermal titration calorimetry; parameters: Kinetic assays were performed using human α-thrombin (Enzyme Research Laboratories); purchased Enzyme Research Laboratories; settings: using a maximum c value of 500; single binding site; read-out: KD, ITC bound
Method: Isothermal titration calorimetric experiments were performed with a Microcal VP-ITC instrument at 30 °C. Human α-thrombin and XC-43 were dissolved in PBS, pH 7.4 at concentrations of 1 μM and 10 μM, respectively. XC-43 was added as 10-μl injections to the protein sample contained in the calorimeter cell. Calculated injection enthalpies were fit to a single-site binding model in the Microcal data evaluation software.
Figure S3: Analysis of XC-43 binding with thrombin using isothermal titration calorimetry. XC-43 (10 µM) was added to a solution of thrombin (1 µM) in a series of 10 µl injections. Heats were record ed on a VP -IT C MicroCalorimeter and the data fitted using a singl e binding site model. The high affinity makes the magnitude […]
association constant (K) must be ≥ 5 × 10 8 M −1 ( KD ≤ 2 nM ) with a single peptide binding site per thrombin […]
as §1

Wistar rats [3] = experiment: Tail bleeding assay; assay type: in vivo; settings: rat; for increased tail bleeding vs PBS-injected animals: 30 min posttreatment, absorbance 540 nm
Method: The tail bleeding assay was performed with 24 animals kept at 37 °C under general anesthesia with isoflurane vaporized in 100% oxygen at a dose of 5% for induction and 2% for maintenance (flow rate of 0.5 l/min). These animals were randomly distributed into four groups (n = 6 per group) and injected intraperitoneally (300 μl) with: (i) PBS; (ii) heparin (50 μg/kg); (iii) XC-43 (0.5 mg/kg); or (iv) XC-43 (1 mg/kg). After 30 min posttreatment, a medium depth incision was performed at 3 mm from the tip of the animals' tail; the tail was submerged in a test tube containing saline solution (4 ml) and maintained for 30 min. Then, samples from saline solution were appropriately diluted and the absorbance at 540 nm was determined spectrophotometrically.

α-thrombin [4] = biological target: T1, α-thrombin; experiment: Kinetic assay of thrombin-catalyzed hydrolysis of S-2238 (Morrison equation); assay type: biochemical; parameters: Kinetic assays were performed using human α-thrombin (Enzyme Research Laboratories); purchased Enzyme Research Laboratories; settings: summary statement in the abstract; fast, tight-binding inhibitor; read-out: dissociation constant for thrombin (abstract)
Method: All reactions were performed at 30 °C. Kinetic assays were performed using human α-thrombin (Enzyme Research Laboratories) and chromogenic substrate S-2238 (Diapharma) using a Thermomax micro plate reader (Molecular Devices). Reactions were performed in 100 μl of TBS buffer (10 mM Tris, 0.15 M NaCl, pH 7.4) containing 0.01% Tween-20. XC-43 (0–3.2 nM) or 0 to 15 pairs of X.cheopis salivary glands were incubated with human α-thrombin (0.2 nM) at 30 °C for 5 min followed by addition of S-2238 (50, 100, 200, 400, and 600 μM). Reactions were followed for 30 min. The inhibitory constants were determined by fitting the nonlinear regression model according to the Morrison’s equation ([43]) using the GraphPad Prism software (GraphPad Software, Inc).

α-thrombin [5] = experiment: XC-43-thrombin complex assembled in 10 mM HEPES pH 7.4, crystallized in 0.2 M magnesium acetate, 9% PEG 8000 (measured pH ∼ 7); settings: human, room temperature
α-thrombin [6] = experiment: thrombin (1 μM) in 25 mM Tris-HCl pH 8.0 containing 150 mM NaCl; settings: human, 37 °C, up to 2 h
Wistar rats [7] = experiment: Ex vivo aPTT of plasma from treated rats; assay type: in vivo; settings: rat; heparin 50 μg/kg intraperitoneal; 2 and 12 h posttreatment
Method: A total number of 24 animals were randomly distributed into four groups (n= 6 per group) and injected intraperitoneally (300 μl) with: (i) PBS; (ii) heparin (50 μg/kg); (iii) XC-43 (0.5 mg/kg); or (iv) XC-43 (1.0 mg/kg). Animals were anesthetized with isoflurane (5% for induction; 2% for maintenance) and blood samples were obtained at 0, 2, 12, and 24 h posttreatment in 1:10 (v/v) 3.8% trisodium citrate. The PPP was obtained by blood centrifugation (1500g for 10 min) and the aPTT evaluated using the APTT ellagic kit (Wiener Lab). Clot formation was monitored at 650 nm using a SpectraMax M3 (Molecular Devices).

Question: How did the “dissociation constants on immobilized thrombin, SPR (in words)” value (α-thrombin [1]) turn out when `CC[C@H](C)[C@H](NC(=O)[C@@H]1CCCN1C(=O)[C@H](CCC(=O)O)NC(=O)[C@H](CCSC)NC(=O)CNC(=O)[C@H](CC(N)=O)NC(=O)CNC(=O)CNC(=O)[C@H](CCC(=O)O)NC(=O)CNC(=O)[C@H](CCCNC(=N)N)NC(=O)[C@H](CCC(N)=O)NC(=O)[C@H](Cc1ccc(O)cc1)NC(=O)[C@H](CC(C)C)NC(=O)[C@H](CCCCN)NC(=O)[C@@H]1CCCN1C(=O)[C@H](CCC(N)=O)NC(=O)[C@H](C)NC(=O)[C@@H](NC(=O)[C@H](CCC(=O)O)NC(=O)[C@H](C)NC(=O)[C@H](CCC(=O)O)NC(=O)[C@@H](NC(=O)[C@H](CCC(=O)O)NC(=O)[C@H](CS)NC(=O)[C@H](CCC(=O)O)NC(=O)[C@H](CC(=O)O)NC(=O)[C@H](CC(C)C)NC(=O)[C@H](CC(N)=O)NC(=O)[C@H](CO)NC(=O)[C@H](CCC(N)=O)NC(=O)[C@H](C)NC(=O)[C@@H](NC(=O)[C@H](CCC(=O)O)NC(=O)[C@H](C)NC(=O)[C@H](CCC(=O)O)NC(=O)[C@@H](NC(=O)[C@@H]1CCCN1C(=O)[C@@H](N)CCCCN)C(C)C)C(C)C)C(C)C)C(C)C)C(=O)N1CCC[C@H]1C(=O)N[C@@H](CCC(=O)O)C(=O)N[C@@H](CC(=O)O)C(=O)N[C@H](C(=O)N[C@@H](CC(C)C)C(=O)N[C@@H](CC(N)=O)C(=O)N[C@@H](CCC(=O)O)C(=O)N[C@@H](C)C(=O)N[C@@H](CC(C)C)C(=O)N[C@@H](CC(N)=O)C(=O)N[C@@H](C)C(=O)O)C(C)C` [XC-42] was run?
Answer: elevated dissociation constants

Question: And the “cleavage by thrombin in solution (in words)” value (thrombin)?
Answer: majority of the peptide was uncleaved; also recorded: cleaved to a relatively small degree

Question: `CC[C@H](C)[C@H](NC(=O)[C@@H]1CCCN1C(=O)[C@H](CCC(=O)O)NC(=O)[C@H](CCSC)NC(=O)CNC(=O)[C@H](CC(N)=O)NC(=O)CNC(=O)CNC(=O)[C@H](CCC(=O)O)NC(=O)CNC(=O)[C@H](CCCNC(=N)N)NC(=O)[C@H](CCC(N)=O)NC(=O)[C@H](Cc1ccc(O)cc1)NC(=O)[C@H](CC(C)C)NC(=O)[C@H](CCCCN)NC(=O)[C@@H]1CCCN1C(=O)[C@H](CCC(N)=O)NC(=O)[C@H](C)NC(=O)[C@@H](NC(=O)[C@H](CCC(=O)O)NC(=O)[C@H](C)NC(=O)[C@H](CCC(=O)O)NC(=O)[C@@H](NC(=O)[C@@H]1CCCN1C(=O)[C@@H](N)CCCCN)C(C)C)C(C)C)C(=O)N1CCC[C@H]1C(=O)N[C@@H](CCC(=O)O)C(=O)N[C@@H](CC(=O)O)C(=O)N[C@H](C(=O)N[C@@H](CC(C)C)C(=O)N[C@@H](CC(N)=O)C(=O)N[C@@H](CCC(=O)O)C(=O)N[C@@H](C)C(=O)N[C@@H](CC(C)C)C(=O)N[C@@H](CC(N)=O)C(=O)N[C@@H](C)C(=O)O)C(C)C` [XC-43] was tested. Which “dissociation constants on immobilized thrombin, SPR (in words)” value (α-thrombin [1]) did it give?
Answer: elevated dissociation constants

Question: And the Kd (α-thrombin [2])?
Answer: ≤ 2 nM

Question: What about the “cleavage by thrombin in solution (in words)” value (thrombin) of the same compound?
Answer: majority of the peptide was uncleaved; also recorded: largely intact; also recorded: cleaved to a relatively small degree

Question: What about the “cleavage fragment ion intensity relative to that of the uncleaved peptide” value (thrombin) of the same compound?
Answer: less than 15%

Question: And the “increased tail bleeding vs PBS-injected animals” value (Wistar rats [3]; 0.5 mg/kg intraperitoneal)?
Answer: 3.2 fold

Question: And the “increased tail bleeding vs PBS-injected animals” value (Wistar rats [3]; 1 mg/kg intraperitoneal)?
Answer: 7.6 fold

Question: What about the “increased tail bleeding vs heparin-treated animals” value (Wistar rats [3]; 1 mg/kg intraperitoneal, heparin 50 μg/kg) of the same compound?
Answer: 2.3 fold

Question: And the Kd (α-thrombin [4])?
Answer: < 0.01 nM

Question: How did the not cleaved (α-thrombin [5]) turn out when KPVEAEVAQPKLYQRGEGGNGMEPIPEDVLNEALNA was run?
Answer: no evidence of even partial cleavage

Question: Which fragment found (α-thrombin [6]) does the source give for “KPVEAEVAQSNLDECEVEAEVAQPKLYQRGEGGNGMEPIPEDVLNEALNA” here?
Answer: LYQRGEGGNGMEPIPEDVLNEALNA

Question: Which “increase of ex vivo aPTT in relation to PBS-treated animals” value (Wistar rats [7]) does the source give for heparin here?
Answer: twofold
